Where “and” joins values, the source holds several entries; their conditions need not be identical. Equal entries are not always repeated. Structures can show the parent of a compound that is named as a salt. Where two headings read alike, the source gives them in different places.
Tests used:
[1] = tested on: CMPD-I-sensitive, K^+ channel binding site; assay: [^3 H]CMPD-I ligand binding to intact RINm5F cells; design: species or system rat; conditions: for inhibition of [^3 H]CMPD-I binding: result in words
Procedure: The cells were fed three times a week and passed weekly with 0.25% trypsin/0.02% EDTA (JRH Biosciences, Lenexa, Kans.). For intact cell binding experiments, RINm5F cells were plated onto 60 mm polystyrene petri dishes (Corning) at 5×10^6 cells/dish and grown for 3 days without a change of media. Alternatively, cells were seeded 1×10^6 cells/dish and grown for 7 days with the last feeding two days prior to use. Final cell density was 10-20 ×10^6 cells/dish. […] Intact cell binding was performed with the cells attached to the dishes. Binding was terminated by three successive 3 ml washes of cold (4° C.) buffer. Cells were removed from the dish in 1.6 ml of 0.5 N NaOH, briefly sonicated and radioactivity was quantitated with a liquid scintillation counter using 10 ml cocktail (Ultima Gold, Packard). Statistical analysis to determine KD and BMax was accomplished using nonlinear regression (Enzfitter, Elsevier-Biosoft, Cambridge, UK). IC50 values were determined using a sigmoidal fit of mean percent inhibition versus log of concentration. Petri dishes were removed from the incubator, media was aspirated and the cells were washed (x2) with 3 ml oxygenated (5%CO2 /95%O2) Hanks Buffer (37° C.). Cells were allowed to equilibrate in buffer at least 10 minutes. […] Dishes were incubated at 37° C., in an atmosphere of 5% CO2 /95% for 90 minutes. Bound radioligand was separated from free by aspirating the buffer and washing the cells rapidly (x3) with 3 ml ice cold (4° C.) Hanks Buffer. Cells were then removed and solubilized with the addition of 1.6 ml 0.5N NaOH. Dishes were mounted on an orbit shaker (Lab Line) and rotated at 100-125 rpm for 20-45 minutes until the cells would detach from the plates. […] The solutions were vortexed and an aliquot (10 μ`) from each tube was removed for total protein determination. The remainder (1.59 ml) was transferred to a 20 ml vial with 10 ml Ultima Gold (Packard) scintillation cocktail and mixed until the aqueous phase cleared. Each sample was counted for at least one minute by a liquid scintillation system set for counting tritium. Total protein content of each dish was determined by the method of Bradford with bovine serum albumin used as the standard. […] Percent Inhibition of specific binding by test compounds was determined by calculating: 100-[(Cpm (with Drug)-Nonspecific cpm.div.Specific cpm)×100](Basic program) Free and Bound radioligand was calculated (Basic program) and a saturation curve based on a nonlinear regression fit of the data was used to determine a KD (nM) and Bmax (fmoles/mg total cellular protein) of binding (Enzfitter, Id.). Mean percent inhibition of binding at the concentrations tested for each drug was fit to a sigmoidal function. IC50 values were calculated from the plot of the fraction of maximal inhibition versus Log of concentration (Enzfitter, Id.).

[2] = tested on: rat aorta; assay: Aortic relaxation of rat aortic rings precontracted with 20 mM KCl; conditions: aortae depolarized with 20 mM KCl
Procedure: Male Long-Evans Hooded rats (200-400 g) were sacrificed by acute decapitation. Thoracic aortae were rapidly removed and placed in an oxygenated (100% O2) physiological saline solution (PSS) (pH 7.4) of the following composition in mM: NaCl, 130; KCl, 5.9; MgCl2, 1.2; CaCl2, 0.8; HEPES, 22 and glucose, 11.1. The aortae were trimmed of fat, cut into rings 3 mm in length, mounted in an organ bath containing 10 ml of oxygenated PSS at 37° C. and stretched to a resting tension of 2.0 g. The aortae were depolarized with 20 mM KCl and after contractile response had stabilized, vasodilators were added. The vasorelaxation produced by the drugs was reversed by glyburide (a potent antagonist of ATP-dependent K^+ channels, as described above). Prior to the aortic preparation, the instrument to measure changes in aortic tension was set up and each channel was statically calibrated for linearity using Class S metric weights from 1 to 5 grams, the range consistent with changes observed in this study. This instrument translates isometric changes in tension over time to an electrical signal expressed as a tracing that can be quantified by peak height. […] After a 90 minute equilibration the resting tension was readjusted to the baseline level. […] Percent relaxation of putative K^+ channel agonists was calculated as follows: 100-[(Peak Height (mm) after Drug.div.Initial Peak Height (mm) after 20 mM K^+)×100] […]

Row | Compound | inhibition of [^3 H]CMPD-I binding [1] | further results
1 | [3H]c1cc([3H])c(NC(=C[N+](=O)[O-])NC(C)C(C)(C)C)c(OCC)c1 (single isomer, unassigned) [[^3 H]CMPD-I] | – | Kd ([1]; Scatchard analysis, single binding site (FIG. 3), read-out: apparent KD): 0.7 nM; Kd ([1]; determined by saturation analysis, read-out: KD): 2 nM; Kd ([1]; two additional experiments, read-out: KD): 2.3 nM and 2.4 nM
2 | CC[N+](CC)(CC)CC [TEA] | inhibit binding | –
3 | COc1ccc(Cl)cc1C(=O)NCCc1ccc(S(=O)(=O)NC(=O)NC2CCCCC2)cc1 [glyburide] | inhibit binding | reversal of vasorelaxation produced by the drugs [2]: reversed
4 | Cc1cnc(C(=O)NCCc2ccc(S(=O)(=O)NC(=O)NC3CCCCC3)cc2)cn1 [glypizide] | inhibit binding | –
5 | Nc1cc(N2CCCCC2)nc(N)[n+]1OS(=O)(=O)[O-] [minoxidil sulfate] | inhibits binding | –
6 | CC(N/C(=N\C#N)Nc1ccncc1)C(C)(C)C (centres unmarked) [pinacidil] | inhibited | –
7 | C=C[C@H]1C[N@@]2CC[C@H]1C[C@@H]2[C@@H](O)c1ccnc2ccc(OC)cc12 [quinidine] | inhibit binding | –
8 | C=C[C@H]1C[N@@]2CC[C@H]1C[C@H]2[C@H](O)c1ccnc2ccc(OC)cc12 [quinine] | inhibit binding | –

— US5328830A, “Potassium channel modulators” (Miles Inc., priority 1992, dated 1994)
